Assay results: ChEMBL document CHEMBL2331144, “Synthesis and anticancer activity of analogues of phenstatin, with a phenothiazine A-ring, as a new class of microtubule-targeting agents” (Bioorg Med Chem Lett, 2013)

Legend:
SK-OV-3 = assay: Growth inhibition of human SKOV3 cells after 48 hrs by sulforhodamine B assay; type: functional; conditions: SK-OV-3, 48 h
T47D = assay: Growth inhibition of human T47D cells after 48 hrs by sulforhodamine B assay; type: functional
IGROV-1 = assay: Growth inhibition of human IGROV1 cells after 48 hrs by sulforhodamine B assay; type: functional; conditions: IGROV-1, 48 h
[1] = Growth inhibition of human Hs 578T cells after 48 hrs by sulforhodamine B assay; type: functional
SNB-75 = assay: Growth inhibition of human SNB75 cells after 48 hrs by sulforhodamine B assay; type: functional; conditions: SNB-75, 48 h
CAKI-1 = assay: Growth inhibition of human CAKI-1 cells after 48 hrs by sulforhodamine B assay; type: functional; conditions: CAKI-1, 48 h
[2] = Growth inhibition of human HCC2998 cells after 48 hrs by sulforhodamine B assay; type: functional; conditions: HCC 2998, 48 h
Malme-3M = assay: Growth inhibition of human MALME-3M cells after 48 hrs by sulforhodamine B assay; type: functional
SF-268 = assay: Growth inhibition of human SF268 cells after 48 hrs by sulforhodamine B assay; type: functional; conditions: SF-268, 48 h
HOP-92 = assay: Growth inhibition of human HOP92 cells after 48 hrs by sulforhodamine B assay; type: functional; conditions: HOP-92, 48 h
COLO 205 = assay: Growth inhibition of human COLO205 cells after 48 hrs by sulforhodamine B assay; type: functional; conditions: COLO 205, 48 h
NCI-H522 = assay: Growth inhibition of human NCI-H522 cells after 48 hrs by sulforhodamine B assay; type: functional; conditions: NCI-H522, 48 h
UACC-62 = assay: Growth inhibition of human UACC62 cells after 48 hrs by sulforhodamine B assay; type: functional; conditions: UACC-62, 48 h
MDA-MB-231 = assay: Growth inhibition of human MDA-MB-231 cells after 48 hrs by sulforhodamine B assay; type: functional; conditions: MDA-MB-231, 48 h
OVCAR-4 = assay: Growth inhibition of human OVCAR4 cells after 48 hrs by sulforhodamine B assay; type: functional; conditions: OVCAR-4, 48 h
A549 = assay: Growth inhibition of human A549/ATCC cells after 48 hrs by sulforhodamine B assay; type: functional; conditions: A549, 48 h
K562 = assay: Growth inhibition of human K562 cells after 48 hrs by sulforhodamine B assay; type: functional; conditions: K562, 48 h
CCRF-CEM = assay: Growth inhibition of human CCRF-CEM cells after 48 hrs by sulforhodamine B assay; type: functional
MCF7 = assay: Growth inhibition of human MCF7 cells after 48 hrs by sulforhodamine B assay; type: functional; conditions: MCF7, 48 h
DU-145 = assay: Growth inhibition of human DU145 cells after 48 hrs by sulforhodamine B assay; type: functional; conditions: DU-145, 48 h
NCI-H460 = assay: Growth inhibition of human NCI-H460 cells after 48 hrs by sulforhodamine B assay; type: functional; conditions: NCI-H460, 48 h
LOX IMVI = assay: Growth inhibition of human LOXIMVI cells after 48 hrs by sulforhodamine B assay; type: functional
[3] = Growth inhibition of human EKVX cells after 48 hrs by sulforhodamine B assay; type: functional
HCT-116 = assay: Growth inhibition of human HCT116 cells after 48 hrs by sulforhodamine B assay; type: functional; conditions: HCT-116, 48 h
Ovis aries = species: Ovis aries; assay: Inhibition of sheep brain tubulin polymerization at 100 uM using DAPI by fluorimetry
SN12C = assay: Growth inhibition of human SN12C cells after 48 hrs by sulforhodamine B assay; type: functional
HOP-62 = assay: Growth inhibition of human HOP62 cells after 48 hrs by sulforhodamine B assay; type: functional; conditions: HOP-62, 48 h
SW-620 = assay: Growth inhibition of human SW620 cells after 48 hrs by sulforhodamine B assay; type: functional; conditions: SW-620, 48 h
HCT-15 = assay: Growth inhibition of human HCT15 cells after 48 hrs by sulforhodamine B assay; type: functional; conditions: HCT-15, 48 h
MOLT-4 = assay: Growth inhibition of human MOLT4 cells after 48 hrs by sulforhodamine B assay; type: functional; conditions: MOLT-4, 48 h
TK-10 = assay: Growth inhibition of human TK10 cells after 48 hrs by sulforhodamine B assay; type: functional; conditions: TK-10, 48 h
SK-MEL-28 = assay: Growth inhibition of human SK-MEL-28 cells after 48 hrs by sulforhodamine B assay; type: functional; conditions: SK-MEL-28, 48 h
UACC-257 = assay: Growth inhibition of human UACC257 cells after 48 hrs by sulforhodamine B assay; type: functional; conditions: UACC-257, 48 h
BT-549 = assay: Growth inhibition of human BT549 cells after 48 hrs by sulforhodamine B assay; type: functional; conditions: BT-549, 48 h
[4] = Growth inhibition of human NCI-ADR-RES cells after 48 hrs by sulforhodamine B assay; type: functional
OVCAR-3 = assay: Growth inhibition of human OVCAR3 cells after 48 hrs by sulforhodamine B assay; type: functional; conditions: OVCAR-3, 48 h
SK-MEL-5 = assay: Growth inhibition of human SK-MEL-5 cells after 48 hrs by sulforhodamine B assay; type: functional; conditions: SK-MEL-5, 48 h
M14 = assay: Growth inhibition of human M14 cells after 48 hrs by sulforhodamine B assay; type: functional; conditions: M14, 48 h
OVCAR-5 = assay: Growth inhibition of human OVCAR5 cells after 48 hrs by sulforhodamine B assay; type: functional; conditions: OVCAR-5, 48 h
OVCAR-8 = assay: Growth inhibition of human OVCAR8 cells after 48 hrs by sulforhodamine B assay; type: functional; conditions: OVCAR-8, 48 h
SF-539 = assay: Growth inhibition of human SF539 cells after 48 hrs by sulforhodamine B assay; type: functional; conditions: SF-539, 48 h
786-0 = assay: Growth inhibition of human 786-0 cells after 48 hrs by sulforhodamine B assay; type: functional; conditions: 786-0, 48 h
SF-295 = assay: Growth inhibition of human SF295 cells after 48 hrs by sulforhodamine B assay; type: functional; conditions: SF-295, 48 h
MDA-MB-435 = assay: Growth inhibition of human MDA-MB-435 cells after 48 hrs by sulforhodamine B assay; type: functional; conditions: MDA-MB-435, 48 h
HL-60(TB) = assay: Growth inhibition of human HL-60(TB) cells after 48 hrs by sulforhodamine B assay; type: functional; conditions: HL-60, 48 h
PC-3 = assay: Growth inhibition of human PC3 cells after 48 hrs by sulforhodamine B assay; type: functional; conditions: PC-3, 48 h
SR = assay: Growth inhibition of human SR cells after 48 hrs by sulforhodamine B assay; type: functional
KM12 = assay: Growth inhibition of human KM12 cells after 48 hrs by sulforhodamine B assay; type: functional; conditions: KM12, 48 h
HT-29 = assay: Growth inhibition of human HT-29 cells after 48 hrs by sulforhodamine B assay; type: functional; conditions: HT-29, 48 h
A498 = assay: Growth inhibition of human A498 cells after 48 hrs by sulforhodamine B assay; type: functional; conditions: A498, 48 h
UO-31 = assay: Growth inhibition of human UO31 cells after 48 hrs by sulforhodamine B assay; type: functional; conditions: UO-31, 48 h
NCI-H23 = assay: Growth inhibition of human NCI-H23 cells after 48 hrs by sulforhodamine B assay; type: functional; conditions: NCI-H23, 48 h
ACHN = assay: Growth inhibition of human ACHN cells after 48 hrs by sulforhodamine B assay; type: functional
SK-MEL-2 = assay: Growth inhibition of human SK-MEL-2 cells after 48 hrs by sulforhodamine B assay; type: functional; conditions: SK-MEL-2, 48 h
RPMI-8226 = assay: Growth inhibition of human RPMI8226 cells after 48 hrs by sulforhodamine B assay; type: functional; conditions: RPMI-8226, 48 h
[5] = Inhibition of sheep brain tubulin polymerization using DAPI by fluorimetry; parameters: species or system Ovis aries
MDA-MB-468 = assay: Growth inhibition of human MDA-MB-468 cells after 48 hrs by sulforhodamine B assay; type: functional; conditions: MDA-MB-468, 48 h
RXF 393 = assay: Growth inhibition of human RXF393 cells after 48 hrs by sulforhodamine B assay; type: functional; conditions: RXF 393, 48 h

SMILES: COc1ccc(C(=O)N2c3ccccc3Sc3ccccc32)cc1F
- GI50 (SK-OV-3): 322 nM
- GI50 (T47D): 468 nM
- GI50 (IGROV-1): 572 nM
- GI50 [1]: 285 nM
- GI50 (SNB-75): 222 nM
- GI50 (CAKI-1): 561 nM
- GI50 [2]: 314 nM
- GI50 (Malme-3M): 991 nM
- GI50 (SF-268): 819 nM
- GI50 (HOP-92): 209 nM
- GI50 (COLO 205): 244 nM
- GI50 (NCI-H522): 102 nM
- GI50 (UACC-62): 518 nM
- GI50 (MDA-MB-231): 570 nM
- GI50 (OVCAR-4): 6560 nM
- GI50 (A549): 382 nM
- GI50 (K562): 143 nM
- GI50 (CCRF-CEM): 300 nM
- GI50 (MCF7): 316 nM
- GI50 (DU-145): 303 nM
- GI50 (NCI-H460): 372 nM
- GI50 (LOX IMVI): 590 nM
- GI50 [3]: 964 nM
- GI50 (HCT-116): 375 nM
- inhibition (Ovis aries): 95%
- GI50 (SN12C): 760 nM
- GI50 (HOP-62): 539 nM
- GI50 (SW-620): 358 nM
- GI50 (HCT-15): 405 nM
- GI50 (MOLT-4): 442 nM
- GI50 (TK-10): 586 nM
- GI50 (SK-MEL-28): 543 nM
- GI50 (UACC-257): 671 nM
- GI50 (BT-549): 604 nM
- GI50 [4]: 112 nM
- GI50 (OVCAR-3): 312 nM
- GI50 (SK-MEL-5): 335 nM
- GI50 (M14): 216 nM
- GI50 (OVCAR-5): 522 nM
- GI50 (OVCAR-8): 384 nM
- GI50 (SF-539): 290 nM
- GI50 (786-0): 590 nM
- GI50 (SF-295): 229 nM
- GI50 (MDA-MB-435): 35 nM
- GI50 (HL-60(TB)): 267 nM
- GI50 (PC-3): 419 nM
- GI50 (SR): 271 nM
- GI50 (KM12): 239 nM
- GI50 (HT-29): 251 nM
- GI50 (A498): 211 nM
- GI50 (UO-31): 2220 nM
- GI50 (NCI-H23): 393 nM
- GI50 (ACHN): 1890 nM
- GI50 (SK-MEL-2): 355 nM
- GI50 (RPMI-8226): 259 nM
- IC50 [5]: 9480 nM
- GI50 (MDA-MB-468): 249 nM
- GI50 (RXF 393): 272 nM

SMILES: CCOC(=O)c1cc(C(=O)N2c3ccccc3Sc3ccccc32)n2c(C)cccc12
- GI50 (SK-OV-3): 4040 nM
- GI50 (T47D): 4160 nM
- GI50 (IGROV-1): 5780 nM
- GI50 [1]: 1500 nM
- GI50 (SNB-75): 1880 nM
- GI50 (CAKI-1): 6230 nM
- GI50 [2]: 6710 nM
- GI50 (Malme-3M): 6130 nM
- GI50 (SF-268): 7110 nM
- GI50 (HOP-92): 2690 nM
- GI50 (COLO 205): 3130 nM
- GI50 (NCI-H522): 1820 nM
- GI50 (UACC-62): 2550 nM
- GI50 (MDA-MB-231): 6040 nM
- GI50 (OVCAR-4): 7930 nM
- GI50 (A549): 3810 nM
- GI50 (K562): 3780 nM
- GI50 (CCRF-CEM): 2390 nM
- GI50 (MCF7): 3030 nM
- GI50 (DU-145): 8220 nM
- GI50 (NCI-H460): 3750 nM
- GI50 (LOX IMVI): 4570 nM
- GI50 [3]: 5840 nM
- GI50 (HCT-116): 2890 nM
- inhibition (Ovis aries): 31%
- GI50 (SN12C): 5530 nM
- GI50 (HOP-62): 6140 nM
- GI50 (SW-620): 3140 nM
- GI50 (HCT-15): 4520 nM
- GI50 (MOLT-4): 3720 nM
- GI50 (TK-10): 6730 nM
- GI50 (SK-MEL-28): 3500 nM
- GI50 (UACC-257): 3240 nM
- GI50 (BT-549): 2930 nM
- GI50 [4]: 2170 nM
- GI50 (OVCAR-3): 4240 nM
- GI50 (SK-MEL-5): 2550 nM
- GI50 (M14): 2600 nM
- GI50 (OVCAR-5): 65800 nM
- GI50 (OVCAR-8): 3760 nM
- GI50 (SF-539): 4130 nM
- GI50 (786-0): 4170 nM
- GI50 (SF-295): 4890 nM
- GI50 (MDA-MB-435): 672 nM
- GI50 (HL-60(TB)): 3080 nM
- GI50 (PC-3): 2200 nM
- GI50 (SR): 2420 nM
- GI50 (KM12): 2940 nM
- GI50 (HT-29): 2950 nM
- GI50 (A498): 1910 nM
- GI50 (UO-31): 3850 nM
- GI50 (NCI-H23): 3550 nM
- GI50 (ACHN): 4850 nM
- GI50 (RPMI-8226): 2160 nM
- GI50 (RXF 393): 2770 nM
